Reference: the NIST ThermoML archive (doi:10.1021/je700406p)
± gives the expanded uncertainty stated by the source.

Assay: wn = mass fraction of the nth substance listed
Conditions: Liquid, Vibrating tube method

CC(C)(N)CO [2-amino-2-methylpropan-1-ol] + O
Conditions	mass density [kg/m3]
313.13 K, 500 kPa, w1 = 0.1997	989.5 ± 0.5
313.13 K, 995 kPa, w1 = 0.2821	988.9 ± 0.6
313.13 K, 998 kPa, w1 = 0.4002	985.4 ± 0.9
313.13 K, 999 kPa, w1 = 0.4976	978.1 ± 1.3
313.13 K, 1000 kPa, w1 = 0.1997	989.8 ± 0.5
313.13 K, 2000 kPa, w1 = 0.1997	990.1 ± 0.5
313.13 K, 2002 kPa, w1 = 0.2821	989.2 ± 0.6
313.13 K, 2006 kPa, w1 = 0.4002	985.8 ± 0.9
313.13 K, 2014 kPa, w1 = 0.4976	978.5 ± 1.3
313.13 K, 2993 kPa, w1 = 0.2821	989.6 ± 0.6
313.13 K, 2995 kPa, w1 = 0.4002	986.2 ± 0.9
313.13 K, 3000 kPa, w1 = 0.1997	990.5 ± 0.5
313.13 K, 3001 kPa, w1 = 0.4976	978.9 ± 1.3
313.13 K, 3995 kPa, w1 = 0.4002	986.6 ± 0.9
313.13 K, 4000 kPa, w1 = 0.1997	990.9 ± 0.5
313.13 K, 4001 kPa, w1 = 0.2821	990 ± 0.6
313.13 K, 4001 kPa, w1 = 0.4976	979.3 ± 1.3
313.13 K, 4995 kPa, w1 = 0.2821	990.4 ± 0.6
313.13 K, 4999 kPa, w1 = 0.4002	986.9 ± 0.9
313.13 K, 4999 kPa, w1 = 0.4976	979.7 ± 1.3
313.13 K, 5000 kPa, w1 = 0.1997	991.2 ± 0.5
313.13 K, 5999 kPa, w1 = 0.4002	987.3 ± 0.9
313.13 K, 6000 kPa, w1 = 0.1997	991.6 ± 0.5
313.13 K, 6000 kPa, w1 = 0.4976	980.2 ± 1.3
313.13 K, 6005 kPa, w1 = 0.2821	990.8 ± 0.6
313.13 K, 6987 kPa, w1 = 0.2821	991.1 ± 0.6
313.13 K, 6994 kPa, w1 = 0.4002	987.7 ± 0.9
313.13 K, 6995 kPa, w1 = 0.4976	980.6 ± 1.3
313.13 K, 7000 kPa, w1 = 0.1997	992 ± 0.5
313.13 K, 7986 kPa, w1 = 0.4002	988.1 ± 0.9
313.13 K, 7991 kPa, w1 = 0.2821	991.5 ± 0.6
313.13 K, 8000 kPa, w1 = 0.1997	992.4 ± 0.5
313.13 K, 8003 kPa, w1 = 0.4976	980.9 ± 1.3
313.13 K, 8992 kPa, w1 = 0.4002	988.5 ± 0.9
313.13 K, 8997 kPa, w1 = 0.2821	991.9 ± 0.6
313.13 K, 8997 kPa, w1 = 0.4976	981.4 ± 1.3
313.13 K, 9007 kPa, w1 = 0.1997	992.8 ± 0.5
313.13 K, 9992 kPa, w1 = 0.4002	988.9 ± 0.9
313.13 K, 9995 kPa, w1 = 0.2821	992.3 ± 0.6
313.13 K, 9999 kPa, w1 = 0.4976	981.8 ± 1.3
313.13 K, 10002 kPa, w1 = 0.1997	993.2 ± 0.5
313.13 K, 10989 kPa, w1 = 0.4976	982.1 ± 1.3
313.13 K, 10990 kPa, w1 = 0.2821	992.6 ± 0.6
313.13 K, 10993 kPa, w1 = 0.4002	989.2 ± 0.9
313.13 K, 11000 kPa, w1 = 0.1997	993.6 ± 0.5
313.13 K, 11991 kPa, w1 = 0.2821	993 ± 0.6
313.13 K, 11992 kPa, w1 = 0.4002	989.6 ± 0.9
313.13 K, 11996 kPa, w1 = 0.4976	982.6 ± 1.3
313.13 K, 12000 kPa, w1 = 0.1997	994 ± 0.5
313.13 K, 12982 kPa, w1 = 0.2821	993.4 ± 0.6
313.13 K, 13000 kPa, w1 = 0.1997	994.4 ± 0.5
313.13 K, 13002 kPa, w1 = 0.4002	990 ± 0.9
313.13 K, 13006 kPa, w1 = 0.4976	983 ± 1.3
313.13 K, 13991 kPa, w1 = 0.2821	993.8 ± 0.6
313.13 K, 13999 kPa, w1 = 0.4002	990.4 ± 0.9
313.13 K, 14000 kPa, w1 = 0.1997	994.7 ± 0.5
313.13 K, 14001 kPa, w1 = 0.4976	983.4 ± 1.3
313.13 K, 14997 kPa, w1 = 0.2821	994.2 ± 0.6
313.13 K, 14999 kPa, w1 = 0.4002	990.8 ± 0.9
313.13 K, 15001 kPa, w1 = 0.4976	983.8 ± 1.3
313.13 K, 15002 kPa, w1 = 0.1997	995.1 ± 0.5
313.13 K, 15990 kPa, w1 = 0.2821	994.5 ± 0.6
313.13 K, 15992 kPa, w1 = 0.4002	991.2 ± 0.9
313.13 K, 15992 kPa, w1 = 0.4976	984.2 ± 1.3
313.13 K, 16000 kPa, w1 = 0.1997	995.5 ± 0.5
313.13 K, 16989 kPa, w1 = 0.2821	994.9 ± 0.6
313.13 K, 16992 kPa, w1 = 0.4976	984.6 ± 1.3
313.13 K, 16994 kPa, w1 = 0.4002	991.5 ± 0.9
313.13 K, 17001 kPa, w1 = 0.1997	995.9 ± 0.5
313.13 K, 17985 kPa, w1 = 0.4976	985 ± 1.3
313.13 K, 17988 kPa, w1 = 0.2821	995.3 ± 0.6
313.13 K, 17989 kPa, w1 = 0.4002	991.9 ± 0.9
313.13 K, 18002 kPa, w1 = 0.1997	996.3 ± 0.5
313.13 K, 18987 kPa, w1 = 0.2821	995.6 ± 0.6
313.13 K, 18990 kPa, w1 = 0.4002	992.3 ± 0.9
313.13 K, 18990 kPa, w1 = 0.4976	985.4 ± 1.3
313.13 K, 19000 kPa, w1 = 0.1997	996.7 ± 0.5
313.13 K, 19992 kPa, w1 = 0.4002	992.7 ± 0.9
313.13 K, 19992 kPa, w1 = 0.4976	985.8 ± 1.3
313.13 K, 19996 kPa, w1 = 0.2821	996 ± 0.6
313.13 K, 20030 kPa, w1 = 0.1997	997.1 ± 0.5
313.13 K, 20495 kPa, w1 = 0.4976	986 ± 1.3
313.13 K, 20691 kPa, w1 = 0.4002	993 ± 0.9
313.13 K, 20955 kPa, w1 = 0.2821	996.4 ± 0.6
313.13 K, 21004 kPa, w1 = 0.1997	997.4 ± 0.5
313.13 K, 22004 kPa, w1 = 0.1997	997.8 ± 0.5
313.13 K, 23000 kPa, w1 = 0.1997	998.2 ± 0.5
313.13 K, 24004 kPa, w1 = 0.1997	998.5 ± 0.5
323.08 K, 1026 kPa, w1 = 0.2821	982.8 ± 0.6
323.08 K, 2026 kPa, w1 = 0.2821	983.2 ± 0.6
323.08 K, 2996 kPa, w1 = 0.2821	983.5 ± 0.6
323.08 K, 4009 kPa, w1 = 0.2821	983.9 ± 0.6
323.08 K, 5006 kPa, w1 = 0.2821	984.3 ± 0.6
323.08 K, 6002 kPa, w1 = 0.2821	984.7 ± 0.6
323.08 K, 6993 kPa, w1 = 0.2821	985.1 ± 0.6
323.08 K, 7994 kPa, w1 = 0.2821	985.5 ± 0.6
323.08 K, 9012 kPa, w1 = 0.2821	985.9 ± 0.6
323.08 K, 9998 kPa, w1 = 0.2821	986.3 ± 0.6
323.08 K, 11009 kPa, w1 = 0.2821	986.6 ± 0.6
323.08 K, 11995 kPa, w1 = 0.2821	987 ± 0.6
323.08 K, 12991 kPa, w1 = 0.2821	987.4 ± 0.6
323.08 K, 14001 kPa, w1 = 0.2821	987.8 ± 0.6
323.08 K, 14989 kPa, w1 = 0.2821	988.2 ± 0.6
323.08 K, 15999 kPa, w1 = 0.2821	988.5 ± 0.6
323.08 K, 16987 kPa, w1 = 0.2821	988.9 ± 0.6
323.08 K, 17980 kPa, w1 = 0.2821	989.3 ± 0.6
323.08 K, 18996 kPa, w1 = 0.2821	989.7 ± 0.6
323.08 K, 19986 kPa, w1 = 0.2821	990.1 ± 0.6
323.08 K, 20987 kPa, w1 = 0.2821	990.4 ± 0.6
323.09 K, 1002 kPa, w1 = 0.4976	970.1 ± 1.3
323.09 K, 1995 kPa, w1 = 0.4976	970.5 ± 1.3
323.09 K, 3001 kPa, w1 = 0.4976	971 ± 1.3
323.09 K, 4009 kPa, w1 = 0.4976	971.4 ± 1.3
323.09 K, 5001 kPa, w1 = 0.4976	971.8 ± 1.3
323.09 K, 5995 kPa, w1 = 0.4976	972.2 ± 1.3
323.09 K, 7011 kPa, w1 = 0.4976	972.6 ± 1.3
323.09 K, 7990 kPa, w1 = 0.4976	973 ± 1.3
323.09 K, 9002 kPa, w1 = 0.4976	973.5 ± 1.3
323.09 K, 9974 kPa, w1 = 0.4976	973.9 ± 1.3
323.09 K, 10992 kPa, w1 = 0.4976	974.3 ± 1.3
323.09 K, 11993 kPa, w1 = 0.4976	974.7 ± 1.3
323.09 K, 12991 kPa, w1 = 0.4976	975.1 ± 1.3
323.09 K, 13986 kPa, w1 = 0.4976	975.6 ± 1.3
323.09 K, 14991 kPa, w1 = 0.4976	976 ± 1.3
323.09 K, 15999 kPa, w1 = 0.4976	976.4 ± 1.3
323.09 K, 16994 kPa, w1 = 0.4976	976.8 ± 1.3
323.09 K, 18003 kPa, w1 = 0.4976	977.2 ± 1.3
323.09 K, 18986 kPa, w1 = 0.4976	977.6 ± 1.3
